# Test results taken from US20230159532A1, “PARATHYROID HORMONE (PTH) RECEPTOR ANTAGONISTS AND USES THEREOF” (Crinetics Pharmaceuticals, Inc., priority 2021, published 2023).
# pKi: −log10 of the molar value.
# Target: T1, human PTHR1 receptor (Homo sapiens, UniProt Q03431)
# T1 construct: purchased Eurofins HTS030M
# T1 sequence (Q03431 27-593): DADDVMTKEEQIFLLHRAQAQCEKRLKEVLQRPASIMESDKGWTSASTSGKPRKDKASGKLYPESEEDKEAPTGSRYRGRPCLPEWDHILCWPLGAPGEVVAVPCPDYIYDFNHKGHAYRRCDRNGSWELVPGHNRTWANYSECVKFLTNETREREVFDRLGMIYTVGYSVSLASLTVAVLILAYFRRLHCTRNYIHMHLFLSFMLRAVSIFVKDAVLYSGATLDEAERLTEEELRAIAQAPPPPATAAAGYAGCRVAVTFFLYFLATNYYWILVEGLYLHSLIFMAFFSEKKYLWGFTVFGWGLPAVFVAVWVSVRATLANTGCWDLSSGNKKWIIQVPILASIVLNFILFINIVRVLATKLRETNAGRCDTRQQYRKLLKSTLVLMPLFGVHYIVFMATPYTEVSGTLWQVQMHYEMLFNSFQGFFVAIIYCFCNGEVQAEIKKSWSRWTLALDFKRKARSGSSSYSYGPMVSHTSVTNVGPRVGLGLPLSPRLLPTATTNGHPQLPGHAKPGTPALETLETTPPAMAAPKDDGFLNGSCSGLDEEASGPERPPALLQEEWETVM
# Experiment: Competitive antagonist binding assay for hPTH-R1 (radioactive competition binding, SPA beads)
# Details: human PTHR1 membranes, [125I]-[Nle8,18,Tyr34]-PTH(1-34) 0.2 nM, 90 minutes at room temperature; read-out: hPTHR1 Ki
# Procedure, shortened: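 Displacement of 0.2 nM radioiodinated [Nle8,18,Tyr34]-PTH(1-34) from membrane-bound human PTHR1 measured by scintillation proximity after 90 min at room temperature. Compounds typically 0-10,000 nM final, pH 7.4 HEPES/Mg/Ca buffer with BSA and detergent. Ki calculated from competition data.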
row,SMILES,pKi
1,"CNCCNc1cc(F)c(N2C(=O)N(C)c3ncccc3-c3ccc(Cl)cc32)c(F)c1 [1-1, 13-chloro-10-(2,6-difluoro-4-{[2-(methylamino)ethyl]amino}phenyl)-8-methyl-6,8,10-triazatricyclo[9.4.0.0^2,7]pentadeca-1(11),2(7),3,5,12,14-hexaen-9-one]",> 7.00
2,"CCN1C(=O)N(c2c(F)cc(NCCN[C@@H]3CC[C@H]3O)cc2F)c2cc(C#N)ccc2-c2cc(Cl)cnc21 [1-179, 4-chloro-10-{2,6-difluoro-4-[(2-{[(1R,2R)-2-hydroxycyclobutyl]amino}ethyl)amino]phenyl}-8-ethyl-9-oxo-6,8,10-triazatricyclo[9.4.0.0^2,7]pentadeca-1(11),2(7),3,5,12,14-hexaene-13-carbonitrile]",> 7.00
3,"CCN1C(=O)N(c2c(F)cc(NCCNCCO)cc2F)c2ccccc2-c2cc(Cl)cnc21 [1-142, 4-chloro-10-[2,6-difluoro-4-({2-[(2-hydroxyethyl)amino]ethyl}amino)phenyl]-8-ethyl-6,8,10-triazatricyclo[9.4.0.0^2,7]pentadeca-1(11),2(7),3,5,12,14-hexaen-9-one]",> 7.00
4,"CCN1C(=O)N(c2c(F)cc(NCCNC3CCOCC3)cc2F)c2cc(Cl)ccc2-c2cc(C)cnc21 [1-27, 13-chloro-10-[2,6-difluoro-4-({2-[(oxan-4-yl)amino]ethyl}amino)phenyl]-8-ethyl-4-methyl-6,8,10-triazatricyclo[9.4.0.0^2,7]pentadeca-1(11),2(7),3,5,12,14-hexaen-9-one]",> 7.00
5,"CCN1C(=O)N(c2c(F)cc(NCCN)cc2F)c2cc(C#N)ccc2-c2cc(Cl)cnc21 [1-126, 10-{4-[(2-aminoethyl)amino]-2,6-difluorophenyl}-4-chloro-8-ethyl-9-oxo-6,8,10-triazatricyclo[9.4.0.0^2,7]pentadeca-1(11),2(7),3,5,12,14-hexaene-13-carbonitrile]",> 7.00
6,"CCN1C(=O)N(c2c(F)cc(NCCN)cc2F)c2cc(Cl)ccc2-c2cc(Cl)cnc21 [1-9, 10-{4-[(2-aminoethyl)amino]-2,6-difluorophenyl}-4,13-dichloro-8-ethyl-6,8,10-triazatricyclo[9.4.0.0^2,7]pentadeca-1(11),2(7),3,5,12,14-hexaen-9-one]",> 7.00
7,"CCN1C(=O)N(c2c(F)cc(NCCNCCS(=O)(=O)O)cc2F)c2cc(C#N)ccc2-c2cc(Cl)cnc21 [1-141, 2-({2-[(4-{4-chloro-13-cyano-8-ethyl-9-oxo-6,8,10-triazatricyclo[9.4.0.0^2,7]pentadeca-1(11),2(7),3,5,12,14-hexaen-10-yl}-3,5-difluorophenyl)amino]ethyl}amino)ethane-1-sulfonic acid]",> 7.00
8,"C[C@@H](CO)NCCNc1cc(F)c(N2C(=O)N(C)c3ncc(Cl)cc3-c3ccc(C#N)cc32)c(F)c1 [1-205, 4-chloro-10-{2,6-difluoro-4-[(2-{[(2S)-1-hydroxypropan-2-yl]amino}ethyl)amino]phenyl}-8-methyl-9-oxo-6,8,10-triazatricyclo[9.4.0.0^2,7]pentadeca-1(11),2(7),3,5,12,14-hexaene-13-carbonitrile]",> 7.00
9,"CCOC(=O)CCCNc1cc(F)c(N2C(=O)N(CC)c3ncc(Cl)cc3-c3ccc(Cl)cc32)c(F)c1 [1-53, ethyl 4-[(4-{4,13-dichloro-8-ethyl-9-oxo-6,8,10-triazatricyclo[9.4.0.0^2,7]pentadeca-1(11),2(7),3,5,12,14-hexaen-10-yl}-3,5-difluorophenyl)amino]butanoate]",5.00 to 6.00
10,"CNCCNc1cc(F)c(N2C(=O)N(C)c3ncc(F)cc3-c3c(F)cc(C#N)cc32)c(F)c1 [1-109, 10-(2,6-difluoro-4-{[2-(methylamino)ethyl]amino}phenyl)-4,15-difluoro-8-methyl-9-oxo-6,8,10-triazatricyclo[9.4.0.0^2,7]pentadeca-1(11),2(7),3,5,12,14-hexaene-13-carbonitrile]",> 7.00
11,"CCN1C(=O)N(c2c(F)cc(NCCN(C)CCO)cc2F)c2cc(Cl)ccc2-c2cc(Cl)cnc21 [1-73, 4,13-dichloro-10-[2,6-difluoro-4-({2-[(2-hydroxyethyl)(methyl)amino]ethyl}amino)phenyl]-8-ethyl-6,8,10-triazatricyclo[9.4.0.0^2,7]pentadeca-1(11),2(7),3,5,12,14-hexaen-9-one]",> 7.00
12,"CCN1C(=O)N(c2c(F)cc(NCCNCCCC(=O)O)cc2F)c2cc(Cl)cc(F)c2-c2cc(F)cnc21 [1-96, 4-({2-[(4-{13-chloro-8-ethyl-4,15-difluoro-9-oxo-6,8,10-triazatricyclo[9.4.0.0^2,7]pentadeca-1(11),2(7),3,5,12,14-hexaen-10-yl}-3,5-difluorophenyl)amino]ethyl}amino)butanoic acid]",> 7.00
13,"CCN1C(=O)N(c2c(F)cc(NCCNCCO)cc2F)c2cc(Cl)ccc2-c2cc(Cl)cnc21 [1-11, 4,13-dichloro-10-[2,6-difluoro-4-({2-[(2-hydroxyethyl)amino]ethyl}amino)phenyl]-8-ethyl-6,8,10-triazatricyclo[9.4.0.0^2,7]pentadeca-1(11),2(7),3,5,12,14-hexaen-9-one]",> 7.00
14,"CCN1C(=O)N(c2c(F)cc(NCCNC(CO)CO)cc2F)c2cc(C#N)ccc2-c2cc(Cl)cnc21 [1-157, 4-chloro-10-[4-({2-[(1,3-dihydroxypropan-2-yl)amino]ethyl}amino)-2,6-difluorophenyl]-8-ethyl-9-oxo-6,8,10-triazatricyclo[9.4.0.0^2,7]pentadeca-1(11),2(7),3,5,12,14-hexaene-13-carbonitrile]",> 7.00
15,"CCN1C(=O)N(c2c(F)cc(NCCNCCN)cc2F)c2cc(C#N)ccc2-c2cc(Cl)cnc21 [1-131, 10-[4-({2-[(2-aminoethyl)amino]ethyl}amino)-2,6-difluorophenyl]-4-chloro-8-ethyl-9-oxo-6,8,10-triazatricyclo[9.4.0.0^2,7]pentadeca-1(11),2(7),3,5,12,14-hexaene-13-carbonitrile]",> 7.00
16,"CC(C)N1C(=O)N(c2c(F)cc(N3CC[C@@H](N)C3)cc2F)c2cc(C#N)cc(F)c2-c2cc(F)cnc21 [1-212, 10-{4-[(3R)-3-aminopyrrolidin-1-yl]-2,6-difluorophenyl}-4,15-difluoro-9-oxo-8-(propan-2-yl)-6,8,10-triazatricyclo[9.4.0.0^2,7]pentadeca-1(15),2(7),3,5,11,13-hexaene-13-carbonitrile]",> 7.00
17,"CCN1C(=O)N(c2c(F)cc(NCCNCCNC)cc2F)c2cc(C#N)ccc2-c2cc(Cl)cnc21 [1-127, 4-chloro-10-{2,6-difluoro-4-[(2-{[2-(methylamino)ethyl]amino}ethyl)amino]phenyl}-8-ethyl-9-oxo-6,8,10-triazatricyclo[9.4.0.0^2,7]pentadeca-1(11),2(7),3,5,12,14-hexaene-13-carbonitrile]",> 7.00

# The remaining lines, values ahead:
row,pKi,SMILES
1,> 7.00,"CCN1C(=O)N(c2c(F)cc(NCCNCCO)cc2F)c2cc(C#N)ccc2-c2cc(F)ccc21 [3-18, 8-[2,6-difluoro-4-({2-[(2-hydroxyethyl)amino]ethyl}amino)phenyl]-10-ethyl-14-fluoro-9-oxo-8,10-diazatricyclo[9.4.0.0^2,7]pentadeca-1(11),2(7),3,5,12,14-hexaene-5-carbonitrile]"
2,> 7.00,"CCN1C(=O)N(c2ncc(NCCNC)cc2F)c2cc(Cl)ccc2-c2cc(Cl)cnc21 [2-11, 4,13-dichloro-8-ethyl-10-(3-fluoro-5-{[2-(methylamino)ethyl]amino}pyridin-2-yl)-6,8,10-triazatricyclo[9.4.0.0^2,7]pentadeca-1(11),2(7),3,5,12,14-hexaen-9-one]"
3,5.00 to 6.00,"CCN1C(=O)N(c2c(F)cc(NCCNC3CCOCC3)cc2F)c2cc(Cl)ccc2-c2nc(C#N)ccc21 [3-17, 13-chloro-10-[2,6-difluoro-4-({2-[(oxan-4-yl)amino]ethyl}amino)phenyl]-8-ethyl-9-oxo-3,8,10-triazatricyclo[9.4.0.0^2,7]pentadeca-1(11),2(7),3,5,12,14-hexaene-4-carbonitrile]"
4,> 7.00,"CCN1C(=O)N(c2ccc(NCCNCCO)cc2)c2cc(Cl)ccc2-c2cc(Cl)cnc21 [2-9, 4,13-dichloro-8-ethyl-10-[4-({2-[(2-hydroxyethyl)amino]ethyl}amino)phenyl]-6,8,10-triazatricyclo[9.4.0.0^2,7]pentadeca-1(11),2(7),3,5,12,14-hexaen-9-one]"
5,> 7.00,"CCN1C(=O)N(c2c(F)cc(NCCNCCO)cc2F)c2cc(C#N)c(OC)cc2-c2cc(F)cnc21 [3-23, 10-[2,6-difluoro-4-({2-[(2-hydroxyethyl)amino]ethyl}amino)phenyl]-8-ethyl-4-fluoro-14-methoxy-9-oxo-6,8,10-triazatricyclo[9.4.0.0^2,7]pentadeca-1(11),2(7),3,5,12,14-hexaene-13-carbonitrile]"
6,> 7.00,"CCN1C(=O)N(c2c(F)cc(NCCNC)cc2F)c2cc(Cl)ccc2-c2c1ncc(Cl)c2C [3-5, 4,13-dichloro-10-(2,6-difluoro-4-{[2-(methylamino)ethyl]amino}phenyl)-8-ethyl-3-methyl-6,8,10-triazatricyclo[9.4.0.0^2,7]pentadeca-1(11),2(7),3,5,12,14-hexaen-9-one]"
